Among the data in ChEMBL document CHEMBL5143689, “In silico, synthesis and anticancer evaluation of benzamide tryptamine derivatives as novel eEF2K inhibitors” (Bioorg Med Chem Lett, 2022) are IC50, inhibition and Activity values, retold here.

Experiment [1] concerns CCRF-CEM. Description: Antiproliferative activity against human CCRF-CEM cells assessed as inhibition of cell viability measured after 48 hrs by MTT assay. The class given is functional, cell-based. For orientation: Tetrazolium assays rely on reduction of a dye to a coloured formazan, in cell work by metabolically active cells.
Another experiment concerns K562. Briefly: Antiproliferative activity against human K562 cells assessed as inhibition of cell viability measured after 48 hrs by MTT assay. The class given is functional, cell-based. The settings on record: K562, 48 h.
The subject of another experiment is U-937. Briefly: Antiproliferative activity against human U-937 cells assessed as inhibition of cell viability measured after 48 hrs by MTT assay. The class given is functional, cell-based. The settings on record: U-937, 48 h.
For experiment [2], the target named is T1, Eukaryotic elongation factor 2 kinase (Homo sapiens, UniProt O00418).
T1 sequence (O00418 whole entry): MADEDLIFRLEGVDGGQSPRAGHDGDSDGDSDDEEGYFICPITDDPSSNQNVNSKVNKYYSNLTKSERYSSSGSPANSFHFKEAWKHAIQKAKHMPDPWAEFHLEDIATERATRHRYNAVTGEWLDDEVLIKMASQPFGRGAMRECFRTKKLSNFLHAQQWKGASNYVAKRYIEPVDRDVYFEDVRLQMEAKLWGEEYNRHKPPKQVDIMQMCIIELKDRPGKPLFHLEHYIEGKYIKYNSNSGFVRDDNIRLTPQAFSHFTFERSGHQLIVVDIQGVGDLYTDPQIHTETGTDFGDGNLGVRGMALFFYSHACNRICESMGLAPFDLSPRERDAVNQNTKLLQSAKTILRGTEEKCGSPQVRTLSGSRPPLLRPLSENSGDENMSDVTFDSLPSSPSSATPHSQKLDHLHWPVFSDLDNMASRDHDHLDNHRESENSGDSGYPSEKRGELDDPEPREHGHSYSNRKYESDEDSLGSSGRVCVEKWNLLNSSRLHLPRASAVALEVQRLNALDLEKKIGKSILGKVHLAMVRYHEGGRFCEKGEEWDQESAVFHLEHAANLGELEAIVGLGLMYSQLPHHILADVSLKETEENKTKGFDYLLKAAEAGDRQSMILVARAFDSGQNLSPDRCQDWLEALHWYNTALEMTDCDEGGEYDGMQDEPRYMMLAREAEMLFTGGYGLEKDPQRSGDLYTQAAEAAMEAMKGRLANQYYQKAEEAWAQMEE
Description: Inhibition of eEF2K (unknown origin).

Experiment [3] concerns the target T2, Eukaryotic elongation factor 2 kinase (Homo sapiens) (UniProt O00418).
T2 sequence (whole entry): T1 sequence (O00418 whole entry)
Briefly: Inhibition of eEF2K in human CCRF-CEM cells assessed as decrease in phosphorylation of eEF2 at threonine 56 residue up to 16 uM measured after 48 hrs by Western blot analysis. The class given is cell-based. In general terms: A western blot detects proteins with antibodies after separation by electrophoresis.

Experiment [4] addresses T2, Eukaryotic elongation factor 2 kinase (Homo sapiens). Description: Inhibition of eEF2K in human CCRF-CEM cells assessed as decrease in phosphorylation of eEF2 at threonine 58 residue up to 16 uM measured after 48 hrs by Western blot analysis. Type of experiment: cell-based.
Experiment [5] shares this target. Briefly: Inhibition of eEF2K in human CCRF-CEM cells assessed as decrease in phosphorylation of Akt up to 16 uM measured after 48 hrs by Western blot analysis. Type of experiment: cell-based.
For experiment [6] the target is unchanged. Briefly: Inhibition of eEF2K in human CCRF-CEM cells assessed as decrease in phosphorylation of MAPK up to 16 uM measured after 48 hrs by Western blot analysis. Type of experiment: cell-based.
Experiment [7] shares this target. Description: Inhibition of eEF2K in human CCRF-CEM cells assessed as decrease in phosphorylation of mTOR up to 16 uM measured after 48 hrs by Western blot analysis. Type of experiment: cell-based.
The target is the same in experiment [8]. Briefly: Inhibition of eEF2K in human CCRF-CEM cells assessed as decrease in MAPK protein expression level up to 16 uM measured after 48 hrs by Western blot analysis. Type of experiment: cell-based.
For experiment [9] the target is unchanged. Briefly: Inhibition of eEF2K in human CCRF-CEM cells assessed as decrease in phosphorylation of eEF2 at 5 uM measured up to 48 hrs by Western blot analysis. Type of experiment: cell-based.
The target is the same in experiment [10]. Briefly: Inhibition of eEF2K in human CCRF-CEM cells assessed as decrease in phosphorylation of Akt at 5 uM measured up to 48 hrs by Western blot analysis. The class given is cell-based.
Experiment [11] shares this target. Briefly: Inhibition of eEF2K in human CCRF-CEM cells assessed as decrease in phosphorylation of MAPK at 5 uM measured up to 48 hrs by Western blot analysis. Type of experiment: cell-based.
Experiment [12] has the same target. Description: Inhibition of eEF2K in human CCRF-CEM cells assessed as decrease in phosphorylation of mTOR at 5 uM measured up to 48 hrs by Western blot analysis. Type of experiment: cell-based.
The test system of experiment [13] is CCRF-CEM. Description: Induction of apoptosis in human CCRF-CEM cells assessed as increase in cleaved caspase-9 level at 5 uM by Western blot analysis. Type of experiment: functional, cell-based. To be noted: time <= 48.0 hrs, TDE = time-dependent effect.
Experiment [14] deals with CCRF-CEM. Briefly: Induction of apoptosis in human CCRF-CEM cells assessed as increase in cleaved caspase-8 level at 5 uM by Western blot analysis. The class given is functional, cell-based. The settings on record: time <= 48.0 hrs, TDE = time-dependent effect.
Experiment [15] concerns CCRF-CEM. Briefly: Induction of apoptosis in human CCRF-CEM cells assessed as increase in cleaved caspase-3 level at 5 uM by Western blot analysis. The class given is functional, cell-based. To be noted: time <= 48.0 hrs, TDE = time-dependent effect.
Experiment [16] concerns CCRF-CEM. Briefly: Induction of apoptosis in human CCRF-CEM cells assessed as increase in cleaved PARP level at 5 uM by Western blot analysis. The class given is functional, cell-based. The settings on record: time <= 48.0 hrs, TDE = time-dependent effect.
The subject of experiment [17] is CCRF-CEM. Briefly: Induction of cell cycle arrest in human CCRF-CEM cells assessed as accumulation at G0/G1 phase at 2 uM incubated for 48 hrs by PI staining based flow cytometry analysis (reference value: 71.3%). The class given is functional.
The subject of experiment [18] is CCRF-CEM. Description: Induction of cell cycle arrest in human CCRF-CEM cells assessed as accumulation at G0/G1 phase at 4 uM incubated for 48 hrs by PI/ RNaseA staining based flow cytometry analysis (reference value: 71.3%). Type of experiment: functional. For orientation: Flow cytometry measures light scatter and fluorescence of single cells or particles in a stream.

In experiment [19] the test system is CCRF-CEM. Briefly: Induction of cell cycle arrest in human CCRF-CEM cells assessed as accumulation at G0/G1 phase at 8 uM incubated for 48 hrs by PI/ RNaseA staining based flow cytometry analysis (reference value: 71.3%). Type of experiment: functional.
Experiment [20] relates to CCRF-CEM. Description: Induction of apoptosis in human CCRF-CEM cells assessed as early apoptotic cells up to 8 uM measured after 48 hrs by AnnexinV-FITC/PI staining based flow cytometry method. The class given is functional.
In experiment [21] the test system is CCRF-CEM. Description: Induction of apoptosis in human CCRF-CEM cells assessed as late apoptotic cells up to 8 uM measured after 48 hrs by AnnexinV-FITC/PI staining based flow cytometry method. The class given is functional.

Calls of active or inactive are those of the source. The rule behind the calls is not given here.

Regarding `COc1ccc2[nH]cc(CCNCCC(=O)Nc3ccccc3N)c2c1`, the IC50 (in general, the concentration at which inhibition is half-maximal) in the experiment with CCRF-CEM [1] stood at 4.71 µM; in the experiment with K562, 16.5 µM; in the experiment with U-937, 11.2 µM.
Consider `CC(CNCCc1c[nH]c2ccccc12)C(=O)Nc1ccccc1N` (racemic), for which the IC50 in the experiment on CCRF-CEM [1] is 4.45 µM; with K562, 33.8 µM; in the experiment with U-937, above 50 µM.
Compound `O=C1CC(c2ccccc2)c2cccc(N3CCCC3)c21` (stereo unspecified) showed an IC50 in experiment [2] of 0.23 µM.
Same read-out and setting: with `O=S(=O)(c1ccc(Cl)cc1)C1(S(=O)(=O)c2ccc(Cl)cc2)CC1` the figure was 0.069 µM; with `O=C(Nc1ccc(F)cc1F)N1CCCN(Cc2ccccc2)CC1`, 0.032 µM.
Consider `COc1ccc2[nH]cc(CCNCC(C)C(=O)Nc3ccc(C)cc3N)c2c1` (racemic), for which the values for the 50% inhibitory concentration (IC50) in the experiment on CCRF-CEM [1], in the experiment with K562 and in the experiment on U-937 were above 50 µM, 39.2 µM and above 50 µM, respectively.
With `COc1ccc2[nH]cc(CCNCCC(=O)Nc3ccc(C)cc3N)c2c1`, the IC50 in the experiment on CCRF-CEM [1], in the experiment with K562 and in the experiment with U-937 was above 50 µM in each case.
As for `COc1ccc2[nH]cc(CCNCC(C)C(=O)Nc3ccccc3)c2c1` (racemic), the 50% inhibitory concentration (IC50) was 9.16 µM in the experiment on CCRF-CEM [1], 37.5 µM with K562 and above 50 µM with U-937.
Turning to `CC(CNCCc1c[nH]c2ccccc12)C(=O)Nc1ccccc1` (racemic), the IC50 in the experiment on CCRF-CEM [1] was 3.9 µM; in the experiment with K562, 7 µM; in the experiment on U-937 it was 11.4 µM.
The like results for `Cc1ccc(NC(=O)CCNCCc2c[nH]c3ccccc23)c(N)c1` were, in that order, above 50 µM, above 50 µM and above 50 µM.
Turning to `O=C(CCNCCc1c[nH]c2ccc(Cl)cc12)Nc1ccccc1`, the 50% inhibitory concentration (IC50) was found to be 1.63 µM in the experiment on CCRF-CEM [1], 3.54 µM in the experiment with K562 and 2.12 µM in the experiment with U-937. Moreover, the inhibition result in experiment [3], in experiment [4], in experiment [5], in [6], in [7] and in [8] was “Active” each time. Further, the inhibition entry in experiment [9], in [10], in experiment [11] and in experiment [12] was “Active” in each case. Besides, the Activity entry in the experiment with CCRF-CEM [13] is “Tde”; with CCRF-CEM [14], “Tde”; in the experiment on CCRF-CEM [15], “Tde”; in the experiment with CCRF-CEM [16] it was “Tde”; in the experiment with CCRF-CEM [17], 80.8%; with CCRF-CEM [18], 89.7%. For the same compound, the Activity in the experiment with CCRF-CEM [19] came out at 92.3%; in the experiment with CCRF-CEM [20] it was 0.021%; with CCRF-CEM [21], 23.1%.
In the case of `Nc1cc(F)ccc1NC(=O)CCNCCc1c[nH]c2ccccc12`, the values for the half-maximal inhibitory concentration (IC50) in the experiment on CCRF-CEM [1], with K562 and in the experiment with U-937 were 6.2 µM, above 50 µM and above 50 µM, respectively.
Regarding `COc1ccc2[nH]cc(CCNCCC(=O)Nc3ccc(C)cc3[N+](=O)[O-])c2c1`, the IC50 was 14.5 µM in the experiment with CCRF-CEM [1], 48.1 µM in the experiment on K562 and above 50 µM in the experiment with U-937.
The compound `Cc1ccc(C2=NC(C)(O)CC(C(C)C)[Se]2)cc1` (stereo unspecified) showed an IC50 in experiment [2] of 1.5 µM.
With `COc1ccc2[nH]cc(CCNCCC(=O)Nc3ccccc3)c2c1`, the concentration for half-maximal inhibition (IC50) in the experiment with CCRF-CEM [1] was determined as 9.79 µM; in the experiment with K562, 7.83 µM; with U-937, 15.2 µM.
